Patent US20220389058A1, “PEPTIDES AND COMPOSITIONS FOR USE IN COSMETICS AND MEDICINE” (LIPOTRUE, S.L., priority 2019, published 2022)
“Also recorded” adds a separate entry of the source.

How the values were obtained:
HDFa cells [1] = assay: Expression of genes related with collagen production and extracellular matrix, RT-qPCR in HDFa (Example 10); format: cell-based, Human; settings: 0.01 mg/mL, 24 hours
Method: (§1) A stock solution of the peptide was prepared in water at 1 mg/mL. Working solution was freshly prepared at the specified concentration from stock solution in the corresponding supplemented medium.
(§2) RNA (ribonucleic acid) extraction and RT-qPCR (reverse transcription quantitative polymerase chain reaction) were performed. Briefly, HDFa cells were seeded in duplicate (n=2) in 6-well plates at a density of 4×10^5 cells/well and maintained at standard culture conditions (106 Medium supplemented with 1% (v/v) LSGS; 37° C., 95% room humidity, 5% CO2) for 24 hours. Then, cells were treated with peptide Ac-SEQ ID NO: 1-NH2 at the concentration of 0.01 mg/mL for 24 and 48 hours. Untreated cells were used as basal or negative control.
(§3) Cells were finally lysed, and replicates were pooled together for RNA extraction using Qiagen RNeasy Mini kit following manufacturer's instructions. Purified RNAs were used to generate the corresponding cDNAs (complementary deoxyribonucleic acids) by reverse transcription using a commercial kit High capacity cDNA reverse transcription kit (Applied Biosystems) which served as templates for amplification. RT-qPCR was performed with the panel of appropriate TaqMan assay probes for genes shown in table 5 (plus GAPDH—Glyceraldehyde 3-phosphate dehydrogenase—that was used as housekeeping gene) and 2×gene expression Master Mix using StepOne plus Real-Time PCR instrument. Amplification included 40 cycles of: 15 seconds at 95° C. (denaturation) and 1 minute at 60° C. (Annealing and extension) (Arya, M., Shergill, I. S., Williamson, M., Gommersall, L., Arya, N., Patel, H. R. (2005) Basic principles of real-time quantitative PCR. Expert Rev. Mol. Diagn.; 5(2):209-19; and Jozefczuk, J. and Adjaye, J. (2011) Quantitative real-time PCR-based analysis of gene expression. Methods Enzymol. 500; 99-109).
(§4) The obtained data was analysed using the ΔΔCt method, which provides the target gene expression values as fold changes in the treated sample compared with an untreated basal sample. Both samples were normalized with the relative expression of a housekeeping gene GAPDH (Glyceraldehyde 3-phosphate dehydrogenase).

IL33 = IL33 expression modulation by RT-qPCR in HEKa cells (Example 7); format: cell-based, Human; settings: 0.01 mg/mL, 24 hours
Method: as §1
as §2, with “HDFa and HEKa” for “HDFa”, “LSGS for HDFa cells; Medium Epilife supplemented with 1% (v/v) EDGS and 1% (v/v) penicillin/streptomycin for HEKa cells;” for “LSGS;”, “1-NH2, Ac-SEQ ID NO: 2-NH2 or Ac-SEQ ID NO: 3-NH2” for “1-NH2”, “24” for “24 and 48”
as §3, with “the” for “the panel of”, “IL33” for “genes shown in table 5”, “Amplification included 40 cycles of: 15 seconds at 95° C. (denaturation) and 1 minute at 60° C.” left out
(§5) The obtained data was analysed using the ΔΔCt method, which provides the target gene expression values as fold changes in the treated sample compared with an untreated basal sample. […]

HEKa cells [2] = assay: Expression of genes related to epidermal cell cohesion, RT-qPCR in HEKa (Example 9); format: cell-based, Human; settings: 0.01 mg/mL, 24 hours
Method: as §1
(§6) RNA (ribonucleic acid) extraction and RT-qPCR (reverse transcription quantitative polymerase chain reaction) were performed. Briefly, HEKa cells were seeded in duplicate (n=2) in 6-well plates at a density of 4×10^5 cells/well and maintained at standard culture conditions (Medium Epilife supplemented with 1% (v/v) EDGS and 1% (v/v) penicillin/streptomycin; 37° C., 95% room humidity, 5% CO2) for 24 hours.
Then, cells were treated with peptide Ac-SEQ ID NO: 1-NH2, Ac-SEQ ID NO: 2-NH2 or Ac-SEQ ID NO: 3-NH2 at the concentration of 0.01 mg/mL for 24 hours. Untreated cells were used as basal or negative control.
as §3, with “table 1” for “table 5”
as §4

[3] = test system: recombinant mushroom tyrosinase; assay: Tyrosinase activity, L-DOPA/dopachrome absorbance (Example 11); format: biochemical; settings: 0.05-2.5 mg/mL (Ac-SEQ ID NO: 4-NH2: 0.005-2.5 mg/mL); 30 minutes preincubation, L-DOPA, 2 hours, absorbance 450 nm; vs non-treated control (100%)
Method: Briefly, different concentrations of Ac-SEQ ID NO: 1-NH2 (0.05, 0.25, 0.5 and 2.5 mg/mL), Ac-SEQ ID NO: 2-NH2 (0.05, 0.25, 0.5 and 2.5 mg/mL), Ac-SEQ ID NO: 3-NH2 (0.05, 0.25, 0.5 and 2.5 mg/mL) and Ac-SEQ ID NO: 4-NH2 (0.005, 0.025, 0.05, 0.25, 0.5 and 2.5 mg/mL) and the positive control kojic acid (400 and 800 μM) were incubated with recombinant mushroom tyrosinase for 30 minutes before the addition of L-DOPA (L-3,4 dihidroxiphenilalanine, 2.5 mg/mL in PBS). After 2 hours' reaction at room temperature, the absorbance at 450 nm of each well was determined using the microplate reader Multiskan FC (Thermo Fisher Scientific, Mass., USA), which is directly proportional to the amount of dopachrome in the reaction mixture.

HDFa cells [4] = assay: Gene expression with Ac-SEQ ID NO: 4-NH2, RT-qPCR in HDFa (Example 17); format: cell-based, Human; settings: 0.01 mg/mL, 24 hours
Method: as §1
as §6, with “HEKa or HDFa” for “HEKa”, “(106 Medium supplemented with 1% (v/v) LSGS for HDFa cells; Medium” for “(Medium”, “penicillin/streptomycin for HEKa cells;” for “penicillin/streptomycin;”
(§7) Then, cells were treated with peptide Ac-SEQ ID NO: 4-NH2 at the concentration of 0.01 mg/mL for 24 hours. Untreated cells were used as basal or negative control.
as §3, with “table 10” for “table 5”, “C. […]” for “C. (denaturation) and 1 minute at 60° C.”
as §5

HEKa cells [5] = assay: Gene expression with Ac-SEQ ID NO: 4-NH2, RT-qPCR in HEKa (Example 17); format: cell-based, Human; settings: 0.01 mg/mL, 24 hours
Method: as §1
as §6, with “HEKa or HDFa” for “HEKa”, “(106 Medium supplemented with 1% (v/v) LSGS for HDFa cells; Medium” for “(Medium”, “penicillin/streptomycin for HEKa cells;” for “penicillin/streptomycin;”
as §7
as §3, with “table 10” for “table 5”
as §4

Substance | FBN1 Fold change between treated cells and basal control (HDFa cells [1]) | MMP1 Fold change between treated cells and basal control (HDFa cells [1]) | IL33 gene expression, fold change in treated cells with regard to basal control (IL33) | CLDN4 Fold change between treated cells and basal control (HEKa cells [2]) | OCLN Fold change between treated cells and basal control (HEKa cells [2]) | PCDH1 Fold change between treated cells and basal control (HEKa cells [2]) | PKP2 Fold change between treated cells and basal control (HEKa cells [2]) | TJP1 Fold change between treated cells and basal control (HEKa cells [2]) | tyrosinase activity [3] | further results
Ac-Met-Arg-Arg-Glu-Gln-Arg-NH2 (Ac-MRREQR-NH2) [Ac-SEQ ID NO: 2-NH2] | 1.20 Fold change | −1.21 Fold change | −3.77 fold change | 1.51 Fold change | 1.58 Fold change | 2.14 Fold change | 1.42 Fold change | 1.34 Fold change | showed inhibition of tyrosinase activity in a dose-dependent manner from 0.05 mg/mL and onwards | –
Ac-Arg-Glu-Gln-Met-Arg-Arg-NH2 (Ac-REQMRR-NH2) [Ac-SEQ ID NO: 3-NH2] | 1.29 Fold change | −1.46 Fold change | −3.93 fold change | 1.90 Fold change | 1.99 Fold change | 2.48 Fold change | 1.86 Fold change | 1.43 Fold change | showed a dose-dependent inhibition of tyrosinase activity at concentrations of 0.25 mg/mL and higher | MMP3 Fold change between treated cells and basal control (HDFa cells [1]): −1.30 Fold change; CLDN1 Fold change between treated cells and basal control (HEKa cells [2]): 1.5 Fold change; DSC1 Fold change between treated cells and basal control (HEKa cells [2]): 1.41 Fold change; DSC2 Fold change between treated cells and basal control (HEKa cells [2]): 1.43 Fold change; DSP Fold change between treated cells and basal control (HEKa cells [2]): 1.28 Fold change; JUP Fold change between treated cells and basal control (HEKa cells [2]): 1.23 Fold change; PPL Fold change between treated cells and basal control (HEKa cells [2]): 1.52 Fold change
Ac-Arg-Arg-Gln-Met-Glu-Glu-NH2 (Ac-RRQMEE-NH2) [Ac-SEQ ID NO: 4-NH2, a peptide not of the present invention, very similar comparison peptide] | – | – | – | – | – | – | – | – | did not inhibit tyrosinase activity in any of the concentrations tested; also recorded: from concentration 0.05 mg/mL and onwards it increased tyrosinase activity in a dose-dependent manner | COL3A1 Fold change between treated cells and basal control (HDFa cells [4]): −1.28 Fold change; IL1RL1 Fold change between treated cells and basal control (HDFa cells [4]): −1.12 Fold change; TIMP2 Fold change between treated cells and basal control (HDFa cells [4]): −1.26 Fold change; CDSN Fold change between treated cells and basal control (HEKa cells [5]): −1.04 Fold change; IL33 Fold change between treated cells and basal control (HEKa cells [5]): −1.01 Fold change; OCLN Fold change between treated cells and basal control (HEKa cells [5]): −1.08 Fold change; SIGIRR Fold change between treated cells and basal control (HEKa cells [5]): −1.49 Fold change; SLC2A1 Fold change between treated cells and basal control (HEKa cells [5]): −1.07 Fold change; TJP1 Fold change between treated cells and basal control (HEKa cells [5]): −1.04 Fold change
